Here are results for 1 compound from publication PMC6934184, “Selective DNA-PKcs inhibition extends the therapeutic index of localized radiotherapy and chemotherapy” (The Journal of Clinical Investigation, 2019).

The target of this assay is T1, AKT2 (PKB beta) (Homo sapiens, UniProt P31751).
T1 construct: purchased Thermo Fisher Scientific (Life Technologies) SelectScreen
Description: SelectScreen Z'LYTE. The class given is biochemical. The essentials:
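Compound tested in SelectScreen activity assays, Z'LYTE for CSF1R, CDK1/cyclin B and MAP2K6 and Adapta for CAMK1. ATP for CAMK1 was listed as 10, and Km app was used for CSF1R. Results are expressed in percent.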

T1 sequence (P31751 whole entry): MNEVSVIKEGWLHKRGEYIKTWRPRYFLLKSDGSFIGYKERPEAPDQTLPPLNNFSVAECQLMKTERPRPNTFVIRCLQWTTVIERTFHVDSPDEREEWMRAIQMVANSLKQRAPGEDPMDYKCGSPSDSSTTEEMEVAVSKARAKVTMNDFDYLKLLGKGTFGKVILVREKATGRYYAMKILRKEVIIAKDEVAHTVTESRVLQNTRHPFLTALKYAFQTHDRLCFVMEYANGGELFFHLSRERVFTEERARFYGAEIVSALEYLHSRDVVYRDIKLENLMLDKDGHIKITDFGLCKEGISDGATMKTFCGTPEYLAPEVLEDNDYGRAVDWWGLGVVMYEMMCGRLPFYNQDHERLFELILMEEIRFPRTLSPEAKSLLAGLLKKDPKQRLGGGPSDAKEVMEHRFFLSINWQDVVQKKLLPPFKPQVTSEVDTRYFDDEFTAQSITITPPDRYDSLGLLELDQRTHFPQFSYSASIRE

On to `CN(C(=O)CN1CCOCC1)c1ccc2sc3c(-c4cccc5c(=O)cc(N6CC7CCC(C6)O7)oc45)cccc3c2c1` [NU5455], for which testing at 1 µM gave an inhibition of 0%.
